Assay results reported in US12599666B2, “Photolytic compounds and triplet-triplet annihilation mediated photolysis” (University of Massachusetts, priority 2019, dated 2026).
Where “and” joins values, the source holds several entries; their conditions need not be identical. Identical values can stand only once. Like-named read-outs stand apart in the source and are kept apart here. Marks after values point to notes of the source that are not given here.

Tests used:
[1] = Photolytic molecule experiment: TTAP photolytic reaction in solution under LED, HPLC yield; assay type: physicochemical
Description: Photolytic molecule experiment: The NIR LED (720 nm), far red LED (650 nm), green LED (530 nm), blue LED (476 nm) and deep blue (455 nm) were used for photolytic reactions. […] Then, the solution was excited with a LED (20 mW/cm^2) at 37° C. After the photolytic reaction, the raw product was dried and re-dissolved in CH3CN/H2O=(2/1, v/v) and HPLC was used to analyze the yield of product.

[2] = PPGs, from the literature, cited from earlier work
[3] = Photophysical parameters of Sen and PPGs (UV-vis absorption, emission, energy levels); assay type: physicochemical; design: λabs maximum absorption wavelength / λem maximum emission wavelength: unit not given here; settings: for λabs maximum absorption wavelength / λem maximum emission wavelength / ξ molar extinction coefficient: in toluene, 10 μM; for T1 triplet excited state: photosensitizers (Sen), from maximum phosphorescence emission
Description: Characterization: ^1H NMR spectra were recorded with a Bruker 500 MHz spectrometer. UV-Vis spectra were recorded on an Agilent Cary-5 spectrophotometer. Steady-state fluorescence spectra were measured on a HITACHI F-7000 spectrometer. […] The sample for TEM measurement was prepared by dropping the solution onto a carbon-coated copper grid following negative staining with 2.0% (w/v) phosphotungstic acid. The particle size and size distribution were measured by using dynamic light scattering (DLS) on a Malvern Nano-ZS particle size analyzer, excitation wavelength 532 nm. All samples in the Stern-Volmer quenching plots experiments were deaerated with argon for ca. 15 min before measurement and the gas flow was maintained during the measurements. For the TTA upconversion spectra measurement, the diode pumped solid-state laser (650 nm, continues wave, CW, Hi-Teach company, China) was used as the excitation light source and a modified spectrofluorometer was used to record the upconversion spectra. For the prodrug photolytic experiment, an All LED (Mightex Company) was used as the excitation light source.
From the absorption and emission spectra of Sen and PPGs, the triplet and singlet energy levels of PPG and Sen can be calculated. The maximum emission wavelength of phosphorescence is the triplet excited state energy level (T1) of the Sen. The maximum emission wavelength of fluorescence is the singlet excited state energy level (S1) of the PPGs. Moreover, according to the literature, we know the triplet excited energy levels of PPGs. The detail information is always in […]

[4] = TTA upconversion quantum yield; assay type: physicochemical; settings: paired with PtOEP
Description: The upconversion quantum yields (ΦUC): The upconversion quantum yields were calculated with the eq 3, where ΦUC and Φstd stand for upconversion luminescence quantum yield of sample TTA-UC and fluorescence quantum yield of reference compounds, respectively. Aunk and Astd stand for absorbance of the TTA-UC and reference compound, respectively. Iunk and Istd stand for integrated upconversion luminescence intensity of the TTA-UC and fluorescence intensity of reference compounds, respectively. ηunk and μstd stand for the refractive index of water. The equation is multiplied by a factor of 2 to make the maximum quantum yield of two unified emitters.
The upconversion experiments were deaerated with argon for ca. 15 min before measurement and the argon gas flow was kept during the measurement.

[5] = Stern-Volmer photoluminescence quenching of photosensitizers by PPGs-X; assay type: physicochemical
Description: The Stern-Volmer quenching plots experiment (ksv): photoluminescence of photosensitizers (PtTNP, PdTPBP, PtOEP, and Ir(ppy)3) in the presence of different concentrations of PPGs (BDP, perylene, anthracene and coumarin). The mixed solutions were degassed for at least 15 min with Ar in toluene. The ksv constants were calculated with eq 1, where 1o and It stand for photoluminescence intensity of photosensitizer in the absence of PPGs-X and the photoluminescence intensity of photosensitizer in the presence PPGs-X. Q is the concentration of PPGs-X. Biomolecular quenching constants (kq) were calculated by eq2. The Tr is the phosphorescence lifetime of photosensitizer in argon.

[6] = Photocleavage quantum yield / photolytic quantum efficiency calculation; settings: for ε2 × Φp: ε (Sen) × Φp (PPGs); ηp (TTAP): PtOEP as sensitizer; for ε1 × Φp: ε (PPGs) × Φp (PPGs); ηp (direct): direct short wavelength illumination
Description: We compared photolytic quantum efficiency of the widely used PPG of Cou by using the UCNPs as phototransducer.

[7] = cited from earlier work
[8] = PdTPBP, far-red LED light (20 mW/cm^2, 650 nm)
[9] = PtTNP, NIR LED light (20 mW/cm^2, 720 nm, 1 h)
[10] = PtOEP, green LED light (20 mW/cm^2, 532 nm)
[11] = One photon: 120 mW/cm^2, λ > 400 nm
[12] = UCNPs as photo transducers, 570 mW cm^−2, λ = 980 nm

CC(C)(C)OC(=O)NCC(=O)OCc1ccc2c3cccc4cccc(c5cccc1c52)c43 [compound 12]
photolytic yield [1, 8]: 89.2%
photolytic yield [1, 9]: 29.6%

CC(C)(C)OC(=O)NCC(=O)OCc1c2ccccc2cc2ccccc12 [compound 5]
photolytic yield [1, 10]: 58.4%

anthracene [reference compound]
T1 triplet excited state [2]: 1.77 eV

CC(C)(C)OC(=O)N[C@@H](CSSC(C)(C)C)C(=O)OCc1ccc2c3cccc4cccc(c5cccc1c52)c43 [compound 14]
photolytic yield [1, 8]: 81.2%
photolytic yield [1, 9]: 23.3%

CC(C)Cc1ccc(C(C)C(=O)OCc2ccc3c4cccc5cccc(c6cccc2c63)c54)cc1 (centres unmarked) [compound 18]
photolytic yield [1, 8]: 71.6%
photolytic yield [1, 9]: 19.4%

CC(C)COC(=O)OCc1ccc2c3cccc4cccc(c5cccc1c52)c43 [compound 9]
photolytic yield [1, 8]: 65.3%
photolytic yield [1, 9]: 27.8%

CCCCNC(=O)OCc1c2ccccc2cc2ccccc12 [compound 4]
photolytic yield [1, 10]: 51.0%

O=C(CCCc1ccc(N(CCCl)CCCl)cc1)OCc1ccc2c3cccc4cccc(c5cccc1c52)c43 [compound 19]
Yield (HPLC yield) ([1]; Compound 19 only, 720 nm LED, 1 h): No reaction
Yield (HPLC yield) ([1]; Compound 19 only, argon, 720 nm LED, 1 h): No reaction
Yield (HPLC yield) ([1]; Compound 19 only, argon, red light, 2 h): No reaction
Yield (HPLC yield) ([1]; Compound 19 only, red light, 2 h): No reaction
Yield (HPLC yield) ([1]; PdTPBP, air, red light, 2 h): 7
Yield (HPLC yield) ([1]; PdTPBP, argon, dark, 2 h): No reaction
Yield (HPLC yield) ([1]; PdTPBP, argon, red light, 1 h): 72.8
Yield (HPLC yield) ([1]; PdTPBP, argon, red light, 2 h): 67.0
photolytic yield [1, 8]: 72.8%
photolytic yield [1, 9]: 30.4%
Yield (HPLC yield) ([1]; PtTNP, air, 720 nm LED, 1 h): No reaction
Yield (HPLC yield) ([1]; PtTNP, argon, dark, 1 h): No reaction
Yield (HPLC yield) ([1]; PtTNP, argon, 720 nm LED, 1 h): 30.4

CC(C)COC(=O)OCc1c2ccccc2cc2ccccc12 [compound 3]
photolytic yield [1, 10]: 72.3%

CCC1=C(CC)c2cc3[n-]c(cc4nc(cc5[n-]c(cc1n2)c(CC)c5CC)C(CC)=C4CC)c(CC)c3CC.[Pt+2] [PtOEP, platinum octaethylporphyrin]
λabs maximum absorption wavelength [3]: 533
λem maximum emission wavelength [3]: 647
ξ molar extinction coefficient [3]: 7.0 10^4 M^−1 cm^−1
T1 triplet excited state [3]: 1.92 eV

CC(=O)OCc1c2ccccc2cc2ccccc12 [compound 2]
Yield (HPLC) of photolytic reaction ([1]; PtOEP, dark, argon, 1 h): No reaction
photolytic yield [1, 10]: 83%
Yield (HPLC) of photolytic reaction ([1]; PtOEP, light, air, 1 h): Trace
Yield (HPLC) of photolytic reaction ([1]; PtOEP, light, argon, 1 h): 83.2%
Yield (HPLC) of photolytic reaction ([1]; compound only (no PtOEP), green light, argon, 1 h): No reaction
T1 triplet excited state ([2]; listed as An): 1.77 ^n eV and 1.77 eV
2 × T1 − S1 ([3]; PPGs): 0.53 eV
S1 singlet excited state ([3]; PPGs, from maximum fluorescence emission): 3.02 eV
λabs maximum absorption wavelength [3]: 366
λem maximum emission wavelength [3]: 411
ξ molar extinction coefficient [3]: 1.1 10^4 M^−1 cm^−1
upconversion quantum yield [4]: 8.7%
quenching of the photoluminescence of PtOEP ([5]; PtOEP): significant quenching
ksv (bimolecular quenching constant) ([5]; PtOEP as sensitizer): 2.43 × 10^9 j M^−1S^−1
ksv Stern-Volmer quenching constant ([5]; PtOEP as sensitizer): 219000 J/M
increase of ηp (TTAP) over ηp (direct) ([6]; PtOEP): 638%
ε2 × Φp: ε (Sen) × Φp (PPGs); ηp (TTAP) [6]: 6230 ^j
ε2 × Φp: ε (Sen) × Φp (PPGs); ηp (TTAP) ([6]; listed as An): 6230
ε1 × Φp: ε (PPGs) × Φp (PPGs); ηp (direct) [6]: 979
ε1 × Φp: ε (PPGs) × Φp (PPGs); ηp (direct) ([6]; listed as An): 976

COc1ccc2cc(C(C)C(=O)OCc3ccc4c5cccc6cccc(c7cccc3c74)c65)ccc2c1 (centres unmarked) [compound 16]
photolytic yield [1, 8]: 78.5%
photolytic yield [1, 9]: 17.4%

[Pd+2].c1ccc(-c2c3nc(c(-c4ccccc4)c4[n-]c(c(-c5ccccc5)c5nc(c(-c6ccccc6)c6[n-]c2c2ccccc62)-c2ccccc2-5)c2ccccc42)-c2ccccc2-3)cc1 [PdTPBP, meso-tetraphenyltetrabenzoporphine palladium complex]
λabs maximum absorption wavelength [3]: 630
λem maximum emission wavelength [3]: 790
ξ molar extinction coefficient [3]: 11.0 10^4 M^−1 cm^−1
T1 triplet excited state [3]: 1.55 eV

CCCCNC(=O)OCc1ccc2c3cccc4cccc(c5cccc1c52)c43 [compound 10]
photolytic yield [1, 8]: 52.4%
photolytic yield [1, 9]: 29.3%

c1cc2cccc3c4cccc5cccc(c(c1)c23)c54 [Perylene, perylene]
T1 triplet excited state [2]: 1.52 eV
Photocleavage quantum yield ([7]; 110 mW/cm^2 Hg lamp, >410 nm): 0.093
Photolytic efficiency (ε × Φ) ([7]; 110 mW/cm^2 Hg lamp, >410 nm): 3627
Photocleavage quantum yield ([7]; 125 WHg lamp, ≥410 nm): 0.093
Photolytic efficiency (ε × Φ) ([7]; 125 WHg lamp, ≥410 nm): 3627
Photocleavage quantum yield ([7]; TTAP, 20 mW/cm^2, λ = 650 nm): 0.093
Overall photocleavage quantum yield ([6]; TTAP, 20 mW/cm^2, λ = 650 nm): 12400

COc1ccc2c(c1)c(CC(=O)OCc1ccc3c4cccc5cccc(c6cccc1c63)c54)c(C)n2C(=O)c1ccc(Cl)cc1 [compound 17]
photolytic yield [1, 8]: 51.7%
photolytic yield [1, 9]: 9.2%

O=c1ccc2ccccc2o1 [Coumarin, coumarin]
T1 triplet excited state [2]: 2.18 eV
Photocleavage quantum yield [7, 11]: 0.13
Photolytic efficiency (ε × Φ) [7, 11]: 806
Photocleavage quantum yield [7, 12]: 0.13
Overall photocleavage quantum yield; η (upconversion) [6, 12]: <0.02873
